Literature values, collected in US20240342131A1, “Multivitamin for Cystic Fibrosis Patients Undergoing Cystic Fibrosis Transmembrance Conductance Regulator Gene Modulator Therapy” (priority 2021, published 2024).

Details: high doses

O=C1O[C@H]([C@@H](O)CO)C(O)=C1O [vitamin C]
side effect: secretory diarrhea
